Measured values from PMC11830721 (Frontiers in Pharmacology, 2025).

Assays:
FLT3-ITD [1] = molecular target: T1, FLT3-ITD (Homo sapiens, UniProt P36888, ITD); experiment: Microscale thermophoresis (MST) binding affinity; conditions: 50 mM Tris, 230 mM NaCl, pH 7.0, labeled protein 50 nM
T1 sequence (P36888 27-993): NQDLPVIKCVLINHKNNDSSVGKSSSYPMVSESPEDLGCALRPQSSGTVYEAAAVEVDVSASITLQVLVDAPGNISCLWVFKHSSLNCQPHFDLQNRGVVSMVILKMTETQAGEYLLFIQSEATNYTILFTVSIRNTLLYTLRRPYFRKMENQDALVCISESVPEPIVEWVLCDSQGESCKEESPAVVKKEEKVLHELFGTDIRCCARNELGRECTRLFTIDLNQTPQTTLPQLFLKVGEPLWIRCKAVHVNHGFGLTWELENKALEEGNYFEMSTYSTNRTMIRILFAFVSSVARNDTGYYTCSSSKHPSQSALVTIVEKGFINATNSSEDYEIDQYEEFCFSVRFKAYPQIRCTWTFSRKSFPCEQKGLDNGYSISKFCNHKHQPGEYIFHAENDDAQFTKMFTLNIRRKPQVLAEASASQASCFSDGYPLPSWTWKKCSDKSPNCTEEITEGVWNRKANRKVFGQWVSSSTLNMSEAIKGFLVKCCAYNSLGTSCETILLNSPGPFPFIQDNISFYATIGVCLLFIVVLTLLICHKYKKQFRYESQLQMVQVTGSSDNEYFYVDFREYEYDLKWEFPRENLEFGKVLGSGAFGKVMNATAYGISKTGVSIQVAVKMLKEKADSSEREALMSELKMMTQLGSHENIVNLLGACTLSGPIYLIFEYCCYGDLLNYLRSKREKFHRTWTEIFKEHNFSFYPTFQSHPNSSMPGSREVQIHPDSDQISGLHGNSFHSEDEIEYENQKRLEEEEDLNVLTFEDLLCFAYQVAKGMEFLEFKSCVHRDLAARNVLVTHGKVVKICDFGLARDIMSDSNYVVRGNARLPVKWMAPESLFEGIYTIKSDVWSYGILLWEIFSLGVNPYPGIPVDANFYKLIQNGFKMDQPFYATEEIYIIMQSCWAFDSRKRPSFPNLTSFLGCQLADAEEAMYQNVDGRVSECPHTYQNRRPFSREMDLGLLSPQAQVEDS
Description: The protein was labeled with a fluorescence tag utilizing a Lys Labeling Kit (NanoTemper), with a final concentration of 50 nM being achieved. Adhering to the manufacturer’s guidelines, the compounds were titrated from an initial concentration of 12.5 μM with a 1:1 dilution ratio. Next, each sample was centrifuged at 15,000 rpm for 5 min, followed by loading into standard glass capillaries for MST analysis.

FLT3-ITD [2] = molecular target: T1, FLT3-ITD; experiment: ADP-Glo kinase-inhibition assay; format: biochemical; conditions: ADP-Glo; ATP 100 μM; FLT3-ITD 10 ng/μL
Description: Subsequently, the kinase detection reagent was added and incubated for an additional 15 min. Finally, the mixture was incubated for 1 h, and relative luminescence units (RLU) were measured.
(§1) Moreover, we extended the kinase selectivity profiling of FLIN-4 to evaluate its inhibitory activity against 60 non-target kinases.

MV4-11 cells = experiment: MTT anti-proliferation assay, MV4-11; format: cell-based; conditions: Homo sapiens, 72-h treatment
Description: In addition, the normal hematopoietic cell line was COLO 829BL from ATCC. The cells were maintained in RPMI-1640 medium supplemented with 10% FBS, and 1% penicillin and streptomycin. The cells were cultured in an incubator at 37°C with 5% CO2. […] The high-performance liquid chromatography (HPLC) spectra data for each compound are provided in the (Supplementary Figures S1–S6).
(§2) The effects of the test compounds on MV4-11, NB4, and COLO 829BL cell lines were quantitatively evaluated according to the methods previously reported ([Zhou et al., 2022]).

NB4 cells = experiment: MTT assay, NB4 (FLT3 wild-type); format: cell-based; conditions: 2–64 μM
Description: The human AML cell line MV4-11, which bears exclusive FLT3-ITD mutation genes, was purchased from the American Type Culture Collection (ATCC, Manassas, VA, United States), and the AML cell line NB4, a FLT3-wildtype cell line, was obtained from the China Center for Type Culture Collection (CCTCC, Wuhan, China). In addition, the normal hematopoietic cell line was COLO 829BL from ATCC. The cells were maintained in RPMI-1640 medium supplemented with 10% FBS, and 1% penicillin and streptomycin. The cells were cultured in an incubator at 37°C with 5% CO2. […] The high-performance liquid chromatography (HPLC) spectra data for each compound are provided in the (Supplementary Figures S1–S6). The FLT3-ITD mutant protein was purchased from Abcam (Cambridge, United Kingdom).
as §2
Subsequently, to further validate the specificity of FLIN-4 for cells expressing FLT3-ITD, we conducted MTT assays to assess the specificity and cytotoxicity of FLIN-4 within the concentration range of 2–64 μM on NB4 cells (harboring FLT3 wild-type) and COLO 829BL cells (representing normal hematopoietic cells). […]

[3] = system: FLT3 signaling pathway (p-FLT3, p-STAT5, p-ERK) in MV4-11 cells; experiment: Western blot of FLT3 signaling pathway in MV4-11 cells; format: cell-based, human; conditions: 4 h, MV4-11, Western blot quantification
Description: The MV4-11 cell line was subjected to a 4 h exposure to varying concentrations of the FLIN-4 compound. Subsequent to this treatment, cellular lysis was conducted using RIPA lysis buffer (Sigma-Aldrich, United States) to isolate total cellular proteins. Subsequently, protein concentrations were precisely quantified using the BCA protein assay kit (Beyotime, Nantong, China). Western blot analysis was carried out in accordance with established methodologies ([Zhou et al., 2022]). The primary antibodies utilized in this study included: rabbit anti-FLT3 (21049−1-AP, Proteintech Group), rabbit anti-phospho-FLT3 (ab171975, Abcam), rabbit anti-Stat5 (#94205, CST), rabbit anti-Phospho-Stat5 (#4322, CST), rabbit anti-ERK (16443−1-AP, Proteintech Group), rabbit anti-phospho-ERK (28733−1-AP, Proteintech Group), and a rabbit anti-GAPDH antibody (10494−1-AP, Proteintech Group) served as an endogenous loading control.
To elucidate the impact of FLIN-4 on the FLT3 signaling cascade, we conducted a Western blot analysis in MV4-11 cells to evaluate the relative expression levels of pivotal phosphorylated proteins.

60 non-target kinases = experiment: SelectScreen kinase selectivity profiling, whole panel; format: biochemical; conditions: all 60 kinases
Description: as §1

CCc1nc(C(N)=O)c(Nc2ccc(N3CCC(Nc4ccccc4)CC3)c(OC)c2)nc1NC1CCOC(C(O)CO)C1 (centres unmarked) [FLIN-4]
Kd (FLT3-ITD [1]): 0.95 ± 0.06 nM | IC50 (FLT3-ITD [2]): 1.07 ± 0.04 nM | IC50 (MV4-11 cells): 1.31 ± 0.06 nM | Survival rate of NB4 cells (NB4 cells): did not induce any significant changes in the survival rates | p-ERK/ERK expression level ([3]; 3 nM): significant diminution | p-FLT3/FLT3 expression level ([3]; 3 nM): significant diminution | p-STAT5/STAT5 expression level ([3]; 3 nM): significant diminution | p-ERK/ERK expression level ([3]; 30 nM): exacerbated decrease | p-FLT3/FLT3 expression level ([3]; 30 nM): exacerbated decrease | p-STAT5/STAT5 expression level ([3]; 30 nM): exacerbated decrease | IC50 (60 non-target kinases): > 10000 nM
